According to US11802107B2, “Compounds and methods of use” (Signum Biosciences, Inc., priority 2017, dated 2023):
Converted amounts (≈) assume the structure as drawn. Counter-ions that a name gives are not always drawn. Like-named read-outs stand apart in the source and are kept apart here.

What was measured:
P. acnes (ATCC 6919) [1] = assay: Minimal inhibitory concentration (MIC) against P. acnes; type: cell-based, Propionibacterium acnes; details: P. acnes ATCC 6919, 10^6 CFU/mL
Procedure: To determine minimal inhibitory concentration (MIC), reagents were dissolved in vehicle (5% v/v) and then added to bacteria suspension. P. acnes (ATCC® 6919TM) at 10^6 CFU/mL was incubated with test materials at the concentrations of two-fold serial dilution (0.25-500 μg/mL) and incubated for 72 hours (P. acnes).

P. acnes (ATCC 6919) [2] = assay: Minimal bactericidal concentration (MBC) against P. acnes; type: cell-based, Propionibacterium acnes; details: Cutibacterium acnes, ATCC6919; P. acnes 10^7 CFU/mL, in PBS, anaerobic conditions
IL-8 = assay: P. acnes-induced IL-8 on human NHEKs; type: cell-based; details: NHEK, live P. acnes 10^7 CFU, 24 hours, ELISA, read-out: P. acnes-NHEK IL-8 Protein IC50
Procedure: Normal human epidermal keratinocytes (NHEKs) from neonatal donors were obtained from Thermo-Fisher (Cat No. C-001-5C). Cells were cultured in 96-well plates for 24 hours with EpiLife media (Cat No. MEPI500CA) supplemented with keratinocytes growth supplement (Cat No. S0015). On Day 2, media was removed and replaced with supplement-depleted medium for 24 hours. On Day 3, media was removed and cells were pre-treated with test materials ([…]) for 2 hours and later co-treated with test materials and live P. acnes (ATCC® 6919TM) at 10^7 CFU for 24 hours at 37° C. and 5% CO2. After incubation, cell media supernatants were harvested and used to measure pro-inflammatory cytokine levels (IL-8) using ELISA kits (BD Biosciences® #555244). Results were represented as percent of inhibition relative to untreated and P. acnes-only treated cells. IC50 values were determined by non-linear regression analysis using the four-parameter logistic equation.

Balb/C mice = assay: Oxazolone-induced delayed-type hypersensitivity (DTH) in vivo model; details: Mus musculus, topical to ears @ 3% w/v, 24 hours, read-out: Edema % inhibition
Procedure: Inbred male Balb/C mice were purchased from Hilltop Lab Animals (Scottdale, PA) and were used between 8 and 10 weeks of age. Mice backs were shaved and 100 μl of 3% v/v Oxazolone (Sigma Aldrich, Cat No. E0753) in acetone/olive oil (4:1) was applied to dorsal skin for sensitization. On Day 7, ears were challenged with 0.5% v/v Oxazolone and 30 minutes after challenge, test materials at 3% w/v were applied to ears (10 μl applied both to the dorsal and ventral surfaces of the mouse ear using a solvent pipette) and 24 hours later, skin thickness (edema) was measured. A 6-mm punch biopsy was obtained from each ear, snap frozen in liquid nitrogen. Ear skin biopsy punches were pulverized using FastPrep®-24 Biopulverizer (MP Biomedical, CatNo. 116004500) and Lysing Matrix A tubes (CatNo. 16910050). Protein extracts were obtained using 500 μL/tissue of cold T-PER buffer (ThermoFisher, CatNo. 78510) with Protease inhibitors (Sigma-Aldich, CatNo. 58820-20TAB). Soluble protein fractions were used to measure cytokine levels (IL-4) using ELISA kit (BD Biosciences® #555232). Results were represented as percent of inhibition relative to unsensitized and sensitized-only treated animals. Vehicle for presently disclosed compounds was 60:40 H2O:EtOH and 1:1 Acetone:EtOH for AN2718. (n=5-15 animals per treatment group).
Compound C was further analyzed at various dosages against 0.4 mg/ear of […] by the above protocol, data representing the average±S.E. of cumulative data from three independent experiments (n=12-15 mice per group) is shown below: […]

[3] = Cutibacterium acnes, ATCC6919, 72 h, read-out: MIC

| MIC (P. acnes (ATCC 6919) [1]; [3]) [µg/mL] | Compound | other results |
| --- | --- | --- |
| 63 (≈ 120 µM) | C/C(=C\CSC[C@H](NC(=O)N1CCC1C(=O)O)C(=O)O)CCCC(C)CCCC(C)CCCC(C)C (some centres unmarked) [AZ] | – |
| 12 (≈ 21.6 µM) | C/C(=C\CSCC(NC(=O)N1CC(O)CC1C(=O)O)C(=O)O)CCCC(C)CCCC(C)CCCC(C)C (centres unmarked) [BC] | – |
| 23 (≈ 41.5 µM) | C/C(=C\CSCC(NC(=O)N1CCCC(C(=O)O)C1)C(=O)O)CCCC(C)CCCC(C)CCCC(C)C (centres unmarked) [BE] | – |
| 23 (≈ 42.7 µM) | C/C(=C\CSC[C@H](NC(=O)N(CC#N)CC(N)=O)C(=O)O)CCCC(C)CCCC(C)CCCC(C)C (some centres unmarked) [BJ] | – |
| 125 (≈ 237 µM) | C/C(=C\CSC(C)(C)C(NC(=O)CCC(=O)O)C(=O)O)CCCC(C)CCCC(C)CCCC(C)C (centres unmarked) [BO] | – |
| > 125 | C/C(=C\CSC(C)(C)C(Nc1ncc(C(=O)O)cn1)C(=O)O)CCCC(C)CCCC(C)CCCC(C)C (centres unmarked) [BP] | – |
| 12 (≈ 23.3 µM) | C/C(=C/CSC[C@H](NC(=O)N(C)CC(=O)O)C(=O)O)CCCC(C)CCCC(C)CCCC(C)C (stereo partly drawn) [Compound BI, (2R)-2-{[(carboxymethyl)(methyl)carbamoyl]amino}-3-{[(2Z)-3,7,11,15-tetramethylhexadec-2-en-1-yl]sulfanyl}propanoic acid] | – |
| 6 (≈ 12 µM) | C/C(=C\CSCC(NC(=O)CCC(N)=O)C(=O)O)CCCC(C)CCCC(C)CCCC(C)C (centres unmarked) [F] | IC50 (IL-8; Homo sapiens): 1690 nM |
| 32 (≈ 57.5 µM) | CC(=O)N[C@@H](CC(=O)O)C(=O)NC(CSC/C=C(\C)CCCC(C)CCCC(C)CCCC(C)C)C(=O)O (some centres unmarked) [J] | inhibition in vivo at 3 % strength (Balb/C mice): 10% |
| > 250 | CC(=O)NC(C(=O)NC(CSC/C=C(\C)CCCC(C)CCCC(C)CCCC(C)C)C(=O)O)C(C)CO (centres unmarked) [K] | – |
| 16 (≈ 28.8 µM) | CC(=O)NC(CC(C)C)C(=O)NC(CSC/C=C(\C)CCCC(C)CCCC(C)CCCC(C)C)C(=O)O (centres unmarked) [M] | – |
| > 250 | CC(=O)NC(C(=O)NC(CSC/C=C(\C)CCCC(C)CCCC(C)CCCC(C)C)C(=O)O)C(C)O (centres unmarked) [N] | – |
| 10 (≈ 18 µM) | CC(=O)NC(CC(N)=O)C(=O)NC(CSC/C=C(\C)CCCC(C)CCCC(C)CCCC(C)C)C(=O)O (centres unmarked) [P] | – |
| > 25 | CC(=O)NC(COC(C)(C)C)C(=O)NC(CSC/C=C(\C)CCCC(C)CCCC(C)CCCC(C)C)C(=O)O (centres unmarked) [R] | inhibition in vivo at 3 % strength (Balb/C mice): 24% |
| 19 (≈ 33.1 µM) | C/C(=C\CSCC(NC(=O)C(O)(CC(=O)O)CC(=O)O)C(=O)O)CCCC(C)CCCC(C)CCCC(C)C (centres unmarked) [U] | inhibition in vivo at 3 % strength (Balb/C mice): 18% |
| 62 (≈ 115 µM) | C/C(=C\CSCC(N/C(=N/C#N)N(C)CC(=O)O)C(=O)O)CCCC(C)CCCC(C)CCCC(C)C (centres unmarked) [W] | inhibition in vivo at 3 % strength (Balb/C mice): 22% |
| > 25 | C/C(=C\CSCC(NC(=O)c1ccc(C(=O)O)cc1)C(=O)O)CCCC(C)CCCC(C)CCCC(C)C (centres unmarked) [X] | inhibition in vivo at 3 % strength (Balb/C mice): 15% |
| 50 (≈ 90.1 µM) | C/C(=C\CSCC(NC(=O)N1CCC(C(=O)O)CC1)C(=O)O)CCCC(C)CCCC(C)CCCC(C)C (centres unmarked) [Y] | inhibition in vivo at 3 % strength (Balb/C mice): 0% |

Second part, the molecule before the results:

| Compound | MIC (P. acnes (ATCC 6919) [1]; [3]) [µg/mL] | other results |
| --- | --- | --- |
| CC(C)=CCC/C(C)=C/CC/C(C)=C/CSCC(NC(=O)N1CCCC1C(=O)O)C(=O)O (centres unmarked) [AD] | > 125 | – |
| CC(C)=CCC/C(C)=C/CC/C(C)=C/CSCC(NC(=O)N(CC(=O)O)CC(=O)O)C(=O)O (centres unmarked) [AF] | > 125 | – |
| CC(C)=CCC/C(C)=C/CC/C(C)=C/CSCC(NC(=O)COCC(=O)O)C(=O)O (centres unmarked) [AQ] | > 125 | – |
| C/C(=C\CSCC(NC(=O)N1CCCCC1C(=O)O)C(=O)O)CCCC(C)CCCC(C)CCCC(C)C (centres unmarked) [AW] | > 125 | – |
| CSCC(NC(=O)N(CC(=O)O)CC(=O)O)C(=O)O (centres unmarked) [AX] | > 125 | – |
| O=C(O)CN(CC(=O)O)C(=O)NC12CC3CC(CC(C3)C1)C2 [AY] | > 125 | – |
| C/C(=C\CSc1ccc(C(=O)O)cn1)CCCC(C)CCCC(C)CCCC(C)C (centres unmarked) [BA] | > 125 | – |
| C/C(=C\CSC[C@H](NC(=O)Nc1ncc(C(=O)O)c(C(F)(F)F)n1)C(=O)O)CCCC(C)CCCC(C)CCCC(C)C (some centres unmarked) [BB] | 31 (≈ 49 µM) | – |
| C/C(=C\CSCC(NC(=O)N1CCCCC1)C(=O)O)CCCC(C)CCCC(C)CCCC(C)C (centres unmarked) [BD] | > 125 | – |
| C/C(=C\CSCC(Nc1ncccn1)C(=O)O)CCCC(C)CCCC(C)CCCC(C)C (centres unmarked) [BF] | > 125 | – |
| C/C(=C\CSCC(Nc1nccc(C(=O)O)n1)C(=O)O)CCCC(C)CCCC(C)CCCC(C)C (centres unmarked) [BG] | 42 (≈ 80.5 µM) | – |
| C/C(=C\CSCC(Nc1ncc(C(=O)O)cn1)C(=O)O)CCCC(C)CCCC(C)CCCC(C)C (centres unmarked) [BH] | 4 (≈ 7.67 µM) | MBC (P. acnes (ATCC 6919) [2]): 16 µg/mL (≈ 30.7 µM) |
| C/C(=C\CSC[C@H](Nc1cnc(C(=O)O)cn1)C(=O)O)CCCC(C)CCCC(C)CCCC(C)C (some centres unmarked) [BK] | 31 (≈ 59.4 µM) | – |
| C/C(=C\CSC[C@H](Nc1ncc(C(=O)O)c(C)n1)C(=O)O)CCCC(C)CCCC(C)CCCC(C)C (some centres unmarked) [BL] | 7 (≈ 13.1 µM) | MBC (P. acnes (ATCC 6919) [2]): > 62 µg/mL |
| C/C(=C\CSCC(Nc1ccnc(N(C)CC(=O)O)n1)C(=O)O)CCCC(C)CCCC(C)CCCC(C)C (centres unmarked) [BM] | 6 (≈ 10.6 µM) | MBC (P. acnes (ATCC 6919) [2]): > 62 µg/mL |
| C/C(=C\CSCC(Nc1nccc(N(C)CC(=O)O)n1)C(=O)O)CCCC(C)CCCC(C)CCCC(C)C (centres unmarked) [BN] | 8 (≈ 14.2 µM) | MBC (P. acnes (ATCC 6919) [2]): 31 µg/mL (≈ 54.9 µM) |
| CCC[C@@H]1C[C@@H](C(=O)N[C@@H]([C@H]2O[C@H](SC)[C@H](O)[C@@H](O)[C@H]2O)[C@H](C)Cl)N(C)C1 [Clindamycin HCl, reference compound] | 0.06 | – |
| C[C@H]1C[C@H]2[C@@H]3CCC4=CC(=O)C=C[C@]4(C)[C@@]3(F)[C@@H](O)C[C@]2(C)[C@@]1(O)C(=O)CCl [Clobetasol, reference compound] | – | IC50 (IL-8): 33 nM |
| C[C@H]1c2cccc(O)c2C(=O)C2=C(O)[C@]3(O)C(=O)C(C(N)=O)=C(O)[C@@H](N(C)C)[C@@H]3[C@@H](O)[C@@H]21 [Doxycycline, reference compound] | < 0.2 | – |
| C/C(=C\CSCC(NC(=O)c1ccc(O)c(C(=O)O)c1)C(=O)O)CCCC(C)CCCC(C)CCCC(C)C (centres unmarked) [H] | 6 (≈ 10.6 µM) | inhibition in vivo at 3 % strength (Balb/C mice): 14%; IC50 (IL-8; Homo sapiens): 20 nM |
| CSCCC(NC(C)=O)C(=O)NC(CSC/C=C(\C)CCCC(C)CCCC(C)CCCC(C)C)C(=O)O (centres unmarked) [L] | – | MIC (P. acnes (ATCC 6919) [1]; 72 hours): >16 µg/mL |
| CC(=O)NC(Cc1ccccc1)C(=O)NC(CSC/C=C(\C)CCCC(C)CCCC(C)CCCC(C)C)C(=O)O (centres unmarked) [O] | 32 (≈ 54.3 µM) | – |
